Test results published in patent publication US4758565A, “Substituted pyrimidoquinoxalines useful as anti-anaerobic agents” (G. D. Searle & Co., priority 1986, dated 1988).
Values after ≈ are worked out from the molar mass of the structure shown.

Assays:
B. fragilis NCTC 10581 = assay: Screening panel of Bacteroides fragilis, MIC and MBC, strain A; type: cell-based; details: for MIC: NCTC10581, 48 hours at 37° C., anaerobic, read-out: Minimum Inhibitory Concentration (MIC); for MBC: NCTC10581, less than 5 colonies (99.9% reduction) after 48 hours, read-out: Minimum Bactericidal Concentration (MBC)
Experimental: (§1) The screening panel utilized in this example consisted of 5 strains of Bacteroides fragilis. All assays were carried out in 96-well microtitre plates. If an isolate was obtained from either a culture collection or clinical source, the isolate was immediately inoculated into Wilkins-Chalgren broth (Oxoid) and incubated at 37° C. in an anaerobic chamber in an atmosphere of 85% nitrogen, 10% carbon dioxide, and 5% hydrogen for 48 hours. At the end of this time, the viable count was about […] broth. A 1 ml aliquot of each culture was placed in an ampoule and quick frozen in acetone-dry ice mixture and stored in liquid nitrogen. […] A 2 mg sample of the test compound was dissolved in 0.2 ml of a suitable solvent such as dimethylsulfoxide, polyethylene glycol 200 or methanol. […] After addition of the test solution the final inoculum level was 10^5 cells/ml. The plates were incubated for 48 hours at 37° C. in the anaerobic chamber. The Minimum Inhibitory Concentration (MIC) was read visually. The MIC is defined as the lowest concentration at which there is no detectable growth. The Minimum Bactericidal Concentration (MBC) was determined by taking 50 μ l aliquot from each well and placing it in fresh medium. […] The strains of Bacteroides fragilis utilized in the above procedure are identified by letter in accordance with the following legend: |A B. fragilis NCTC 10581

[1] = test system: B. fragilis MZ-R ATCC 11295; assay: Screening panel of Bacteroides fragilis, MIC and MBC, strain D; type: cell-based; details: ATCC11295, 48 h; for MIC: 48 hours at 37° C., anaerobic, read-out: Minimum Inhibitory Concentration (MIC); for MBC: less than 5 colonies (99.9% reduction) after 48 hours, read-out: Minimum Bactericidal Concentration (MBC)
B. fragilis NCTC 9353 = assay: Screening panel of Bacteroides fragilis, MIC and MBC, strain B; type: cell-based; details: for MIC / MBC: Bacteroides fragilis, NCTC9353, 48 h; for MIC: read-out: Minimum Inhibitory Concentration (MIC); for MBC: read-out: Minimum Bactericidal Concentration (MBC)
Experimental: as §1, with “|B” for “|A”, “9353” for “10581”

B. fragilis WS-1 = assay: Screening panel of Bacteroides fragilis, MIC and MBC, strain E; type: cell-based; details: WS1, 48 h; for MIC: 48 hours at 37° C., anaerobic, read-out: Minimum Inhibitory Concentration (MIC); for MBC: less than 5 colonies (99.9% reduction) after 48 hours, read-out: Minimum Bactericidal Concentration (MBC)
Experimental: as §1, with “|E” for “|A”, “WS-1* | *Obtained from St. Thomas's Hospital Medical School, London, United | Kingdom.” for “NCTC 10581”

B. fragilis NCTC 9344 = assay: Screening panel of Bacteroides fragilis, MIC and MBC, strain C; type: cell-based; details: for MBC / MIC: Bacteroides fragilis; for MBC: NCTC9344, 48 h, read-out: Minimum Bactericidal Concentration (MBC); for MIC: NCTC9344, 48 hours at 37° C., anaerobic, read-out: Minimum Inhibitory Concentration (MIC)
Experimental: as §1, with “|C” for “|A”, “9344” for “10581”

[2] = test system: Peptostreptococcus anaerobius; assay: MIC vs panel of anaerobes; type: cell-based; details: procedures of Example 11 (mg/L)
[3] = test system: Campylobacter fetus ss. jejuni ATCC 29428; assay: MIC vs panel of anaerobes; type: cell-based; details: ATCC29428, procedures of Example 11 (mg/L)
[4] = test system: Clostridium perfringens NCTC 523; assay: microbe, parasite or virus in culture; type: cell-based; details: NCTC523
[5] = test system: Campylobacter fetus ss. jejuni NCTC 10842; assay: MIC vs panel of anaerobes; type: cell-based; details: NCTC10842, procedures of Example 11 (mg/L)
[6] = test system: Clostridium difficile NCIB 10666; assay: MIC vs panel of anaerobes; type: cell-based; details: Clostridioides difficile, NCIB10666, procedures of Example 11 (mg/L)
[7] = test system: Propionebacterium acnes NCTC 7337; assay: MIC vs panel of anaerobes; type: cell-based; details: procedures of Example 11 (mg/L)
[8] = test system: Fusobacterium necrophorum ATCC 11295; assay: MIC vs panel of anaerobes; type: cell-based; details: ATCC11295, procedures of Example 11 (mg/L)
[9] = test system: Bacteroides melanogenicus NCTC 9336; assay: MIC vs panel of anaerobes; type: cell-based; details: NCTC9336, procedures of Example 11 (mg/L)
B. fragilis 23745 = assay: In vivo anti-anaerobe activity, mouse hepatic necrosis; details: 40 mg/kg (p.o)
Peptococcus magnus = assay: MIC vs panel of anaerobes; type: cell-based; details: Finegoldia magna, procedures of Example 11 (mg/L)
[10] = test system: Fusobacterium necrophorum ATCC 25286; assay: MIC vs panel of anaerobes; type: cell-based; details: ATCC25286, procedures of Example 11 (mg/L)
[11] = less than 5 colonies (99.9% reduction) after 48 hours

CC1(C)CN=C2C(c3ccccc3)=[N+]([O-])c3cccc(F)c3N2C1 [Example 5, 2,3-Dihydro-2,2-dimethyl-10-fluoeo-5-phenyl-1H-pyrimido [1,2-a]quinoxaline 6-oxide]
MIC (B. fragilis NCTC 10581): < 0.8 µg/mL
MBC (B. fragilis NCTC 10581): 1.5 µg/mL (≈ 4.64 µM)
MIC [1]: < 0.8 µg/mL
MBC [1]: < 0.8 µg/mL
MIC (B. fragilis NCTC 9353; 48 hours at 37° C., anaerobic): < 0.8 µg/mL
MBC (B. fragilis NCTC 9353; [11]): < 0.8 µg/mL
MIC (B. fragilis WS-1): < 0.8 µg/mL
MBC (B. fragilis WS-1): < 0.8 µg/mL
MBC (B. fragilis NCTC 9344; [11]): < 0.8 µg/mL
MIC (B. fragilis NCTC 9344): < 0.8 µg/mL

CC1(C)CN=C2C(c3ccccc3)=[N+]([O-])c3cc(C(F)(F)F)ccc3N2C1 [Example 1, 2,3-Dihydro-2,2-dimethyl-5-phenyl-8-trifluoromethyl-1H-pyrimido[1,2-a]quinoxaline 6-oxide]
MIC (B. fragilis NCTC 10581): 3.1 µg/mL (≈ 8.3 µM)
MBC (B. fragilis NCTC 10581): 3.1 µg/mL (≈ 8.3 µM)
MIC [2]: 100 µg/mL (≈ 268 µM)
MIC [3]: 100 µg/mL (≈ 268 µM)
MIC [1]: 0.8 µg/mL (≈ 2.14 µM)
MBC [1]: 0.8 µg/mL (≈ 2.14 µM)
MIC [4]: 1.5 µg/mL (≈ 4.02 µM)
MIC [5]: > 100 µg/mL
MIC [6]: < 0.8 µg/mL
MIC [7]: 100 µg/mL (≈ 268 µM)
MIC (B. fragilis NCTC 9353; 48 hours at 37° C., anaerobic): 1.5 µg/mL (≈ 4.02 µM)
MBC (B. fragilis NCTC 9353; [11]): 1.5 µg/mL (≈ 4.02 µM)
MIC [8]: 1.5 µg/mL (≈ 4.02 µM)
MIC (B. fragilis WS-1): 1.5 µg/mL (≈ 4.02 µM)
MBC (B. fragilis WS-1): 1.5 µg/mL (≈ 4.02 µM)
MIC [9]: > 100 µg/mL
MBC (B. fragilis NCTC 9344; [11]): 3.1 µg/mL (≈ 8.3 µM)
MIC (B. fragilis NCTC 9344): 1.5 µg/mL (≈ 4.02 µM)

Cc1ncc([N+](=O)[O-])n1CCO [Metronidazole, reference compound]
MIC (B. fragilis NCTC 10581): < 0.8 µg/mL
MBC (B. fragilis NCTC 10581): < 0.8 µg/mL
Minimum Inhibitory Concentration (MIC) (B. fragilis NCTC 9353; 48 hours at 37° C., anaerobic): 1.5 µg/mL
MIC (B. fragilis NCTC 9353; 48 hours at 37° C., anaerobic): < 0.8 µg/mL
MBC (B. fragilis NCTC 9353; [11]): < 0.8 µg/mL
Minimum Bactericidal Concentration (MBC) (B. fragilis NCTC 9353; [11]): 1.5 µg/mL
reduction in B. fragilis (B. fragilis 23745): 3-3.5 log10
MBC (B. fragilis NCTC 9344; [11]): 1.5 µg/mL (≈ 8.76 µM)
MIC (B. fragilis NCTC 9344): < 0.8 µg/mL
Minimum Bactericidal Concentration (MBC) (B. fragilis NCTC 9344; [11]): < 0.8 µg/mL

Cc1ccc(C2=[N+]([O-])c3cc(C(F)(F)F)ccc3N3CC(C)(C)CN=C23)cc1 [Example 3, 2,3-Dihydro-2,2-dimethyl-5-(4-methylphenyl)-8-trifluoromethyl-1H-pyrimid [1,2-a]quinoxaline 6-oxide]
MIC (B. fragilis NCTC 10581): < 0.8 µg/mL
MBC (B. fragilis NCTC 10581): < 0.8 µg/mL
MIC (Peptococcus magnus): > 100 µg/mL
MIC [2]: > 100 µg/mL
MIC [3]: > 100 µg/mL
MIC [1]: 1.5 µg/mL (≈ 3.87 µM)
MBC [1]: 6.2 µg/mL (≈ 16 µM)
MIC [4]: < 0.8 µg/mL
MIC [5]: 12.5 µg/mL (≈ 32.3 µM)
MIC [6]: < 0.8 µg/mL
MIC [7]: > 100 µg/mL
MIC [10]: < 0.8 µg/mL
MIC (B. fragilis NCTC 9353; 48 hours at 37° C., anaerobic): 1.5 µg/mL (≈ 3.87 µM)
MBC (B. fragilis NCTC 9353; [11]): 1.5 µg/mL (≈ 3.87 µM)
MIC [8]: 6.2 µg/mL (≈ 16 µM)
MIC (B. fragilis WS-1): < 0.8 µg/mL
MBC (B. fragilis WS-1): 1.5 µg/mL (≈ 3.87 µM)
MIC [9]: > 100 µg/mL
MBC (B. fragilis NCTC 9344; [11]): 3.1 µg/mL (≈ 8 µM)
MIC (B. fragilis NCTC 9344): 3.1 µg/mL (≈ 8 µM)

CCC1(C)CN=C2C(c3ccccc3)=[N+]([O-])c3cc(C(F)(F)F)ccc3N2C1 (stereo not drawn) [Example 4, 2,3-Dihydro-2-ethyl-2-methyl-5-phenyl-8-trifluoromethyl-1H-pyrimido [1,2-a]quinoxaline 6-oxide]
MIC (B. fragilis NCTC 10581): < 0.8 µg/mL
MBC (B. fragilis NCTC 10581): 1.5 µg/mL (≈ 3.87 µM)
MIC [1]: < 0.8 µg/mL
MBC [1]: < 0.8 µg/mL
MIC (B. fragilis NCTC 9353; 48 hours at 37° C., anaerobic): < 0.8 µg/mL
MBC (B. fragilis NCTC 9353; [11]): < 0.8 µg/mL
MIC (B. fragilis WS-1): < 0.8 µg/mL
MBC (B. fragilis WS-1): < 0.8 µg/mL
MBC (B. fragilis NCTC 9344; [11]): < 0.8 µg/mL
MIC (B. fragilis NCTC 9344): < 0.8 µg/mL

CC1(C)CN=C2C(c3ccccc3)=[N+]([O-])c3ccc(F)cc3N2C1 [Example 2, 2,3-Dihydro-2,2-dimethyl-9-fluoro-5-phenyl-1H-pyrimido [1,2-a]quinoxaline 6-oxide]
MIC (Peptococcus magnus): < 0.8 µg/mL
MIC [2]: 1.5 µg/mL (≈ 4.64 µM)
MIC [3]: 25 µg/mL (≈ 77.3 µM)
MIC [1]: < 0.8 µg/mL
MBC [1]: < 0.8 µg/mL
MIC [4]: 3.1 µg/mL (≈ 9.59 µM)
MIC [5]: 50 µg/mL (≈ 155 µM)
MIC [6]: 3.1 µg/mL (≈ 9.59 µM)
MIC [7]: 50 µg/mL (≈ 155 µM)
MIC [10]: < 0.8 µg/mL
MIC (B. fragilis NCTC 9353; 48 hours at 37° C., anaerobic): < 0.8 µg/mL
MBC (B. fragilis NCTC 9353; [11]): < 0.8 µg/mL
MIC [8]: 3.1 µg/mL (≈ 9.59 µM)
MIC (B. fragilis WS-1): < 0.8 µg/mL
MBC (B. fragilis WS-1): < 0.8 µg/mL
MIC [9]: 50 µg/mL (≈ 155 µM)
MBC (B. fragilis NCTC 9344; [11]): 1.5 µg/mL (≈ 4.64 µM)
MIC (B. fragilis NCTC 9344): < 0.8 µg/mL

CCC1(C)CN=C2C(c3ccc(C)cc3)=[N+]([O-])c3cc(C(F)(F)F)ccc3N2C1 (stereo not drawn) [Example 6, 2,3-Dihydro-2-ethyl-2-methyl-5-(4-methylphenyl)-8-trifluoromethyl-1H-pyrimdo [1,2-a]quinoxaline 6-oxide]
MIC (B. fragilis NCTC 10581): 6.2 µg/mL (≈ 15.4 µM)
MBC (B. fragilis NCTC 10581): 6.2 µg/mL (≈ 15.4 µM)
MIC [1]: 1.5 µg/mL (≈ 3.74 µM)
MBC [1]: 3.1 µg/mL (≈ 7.72 µM)
MIC (B. fragilis NCTC 9353; 48 hours at 37° C., anaerobic): 6.2 µg/mL (≈ 15.4 µM)
MBC (B. fragilis NCTC 9353; [11]): 6.2 µg/mL (≈ 15.4 µM)
MIC (B. fragilis WS-1): 3.1 µg/mL (≈ 7.72 µM)
MBC (B. fragilis WS-1): 3.1 µg/mL (≈ 7.72 µM)
MBC (B. fragilis NCTC 9344; [11]): 3.1 µg/mL (≈ 7.72 µM)
MIC (B. fragilis NCTC 9344): 3.1 µg/mL (≈ 7.72 µM)
